Assay: xn = mol fraction of the nth substance listed
Conditions: 101 kPa

`CN(C)C=O` + CCCC[n+]1ccn(C)c1.F[P-](F)(F)(F)(F)F gave a viscosity (293.15 K, x1 = 1) of 0.91 mPa·s, a viscosity (298.15 K, x1 = 1) of 0.87 mPa·s and a viscosity (308.15 K, x1 = 1) of 0.78 mPa·s. The viscosity (313.15 K, x1 = 1) was 0.75 mPa·s and the viscosity (318.15 K, x1 = 1) was 0.72 mPa·s.
`CCCC[n+]1ccn(C)c1.F[P-](F)(F)(F)(F)F` + CN(C)C=O showed a viscosity (293.15 K, x2 = 0) of 265 mPa·s, a viscosity (293.15 K, x2 = 0.1002) of 151.1 mPa·s and a viscosity (293.15 K, x2 = 0.2) of 94.6 mPa·s. It also gave a viscosity (293.15 K, x2 = 0.3002) of 59.6 mPa·s, a viscosity (293.15 K, x2 = 0.5) of 23.41 mPa·s and a viscosity (293.15 K, x2 = 0.6) of 12.37 mPa·s. For the same compound, the viscosity (293.15 K, x2 = 0.7) was 6.86 mPa·s, the viscosity (293.15 K, x2 = 0.7999) was 3.71 mPa·s and the viscosity (293.15 K, x2 = 0.8999) was 1.9 mPa·s. The viscosity (298.15 K, x2 = 0) was 205.6 mPa·s, the viscosity (298.15 K, x2 = 0.1002) was 114.5 mPa·s and the viscosity (298.15 K, x2 = 0.2) was 73.4 mPa·s. For the same compound, the viscosity (298.15 K, x2 = 0.3002) was 47.4 mPa·s, the viscosity (298.15 K, x2 = 0.3999) was 32.09 mPa·s and the viscosity (298.15 K, x2 = 0.5) was 19.44 mPa·s. For the same compound, the viscosity (298.15 K, x2 = 0.6) was 10.57 mPa·s, the viscosity (298.15 K, x2 = 0.7) was 6.02 mPa·s and the viscosity (298.15 K, x2 = 0.7999) was 3.35 mPa·s. The viscosity (298.15 K, x2 = 0.8999) was 1.77 mPa·s, the viscosity (303.15 K, x2 = 0) was 165.7 mPa·s and the viscosity (303.15 K, x2 = 0.1002) was 88.2 mPa·s. For the same compound, the viscosity (303.15 K, x2 = 0.2) was 58 mPa·s, the viscosity (303.15 K, x2 = 0.3002) was 38.1 mPa·s and the viscosity (303.15 K, x2 = 0.3999) was 26.34 mPa·s. For the same compound, the viscosity (303.15 K, x2 = 0.5) was 16.3 mPa·s, the viscosity (303.15 K, x2 = 0.6) was 9.11 mPa·s and the viscosity (303.15 K, x2 = 0.7) was 5.32 mPa·s. The viscosity (303.15 K, x2 = 0.7999) was 3.03 mPa·s, the viscosity (303.15 K, x2 = 0.8999) was 1.62 mPa·s and the viscosity (308.15 K, x2 = 0) was 133.9 mPa·s. It also gave a viscosity (308.15 K, x2 = 0.1002) of 68.8 mPa·s, a viscosity (308.15 K, x2 = 0.2) of 45.9 mPa·s and a viscosity (308.15 K, x2 = 0.3999) of 21.74 mPa·s. It also gave a viscosity (308.15 K, x2 = 0.5) of 13.74 mPa·s, a viscosity (308.15 K, x2 = 0.7999) of 2.73 mPa·s and a viscosity (308.15 K, x2 = 0.8999) of 1.5 mPa·s. It also gave a viscosity (313.15 K, x2 = 0) of 110.8 mPa·s, a viscosity (313.15 K, x2 = 0.1002) of 54.9 mPa·s and a viscosity (313.15 K, x2 = 0.2) of 37.4 mPa·s. It also gave a viscosity (313.15 K, x2 = 0.3002) of 25.68 mPa·s, a viscosity (313.15 K, x2 = 0.3999) of 18.3 mPa·s and a viscosity (313.15 K, x2 = 0.5) of 11.82 mPa·s. For the same compound, the viscosity (313.15 K, x2 = 0.6) was 6.94 mPa·s, the viscosity (313.15 K, x2 = 0.7) was 4.22 mPa·s and the viscosity (313.15 K, x2 = 0.7999) was 2.51 mPa·s. For the same compound, the viscosity (313.15 K, x2 = 0.8999) was 1.4 mPa·s, the viscosity (318.15 K, x2 = 0.1002) was 44.6 mPa·s and the viscosity (318.15 K, x2 = 0.3002) was 21.55 mPa·s. The viscosity (318.15 K, x2 = 0.3999) was 15.57 mPa·s, the viscosity (318.15 K, x2 = 0.5) was 10.24 mPa·s and the viscosity (318.15 K, x2 = 0.7) was 3.82 mPa·s. For the same compound, the viscosity (318.15 K, x2 = 0.7999) was 2.3 mPa·s and the viscosity (318.15 K, x2 = 0.8999) was 1.31 mPa·s.

Reference: a compilation of properties of binary mixtures (doi:10.1016/s1004-9541(08)60072-5)
